For data set [1], the system named is ROS1-positive NSCLC. As to conditions: NSCLC patients harboring ROS1 rearrangements; cited from earlier work.
Data set [2] relates to HCC78 NSCLC cells. Nature of the data set: MTT assay, cell viability of HCC78 cells. Type of data set: cell-based. Here is the method:
(§1) To show the highly cytotoxic and selective properties of the present compound of Formula (Ic), HCC78 NSCLC cells and normal lung epithelial cells (BEAS-2B) were treated with the compound of Formula (Ic) and respective effects were observed. HCC78 NSCLC cells are non-small cell lung cancer cells with a ROS1 gene fusion. HCC78 cells were obtained from the American Type Culture Collection (ATCC) and cultured in environment of 5% CO2 at 37° C. in RPMI-1640 medium supplemented with 10% fetal bovine serum (FBS), 100 units/mL penicillin, and 100 μg/mL streptomycin. The compound of Formula (Ic) was dissolved in DMSO. Using a MTT assay, 3000 HCC78 or BEAS-2B cells were seeded on 96-well plates, cultured overnight for cell adhesion, and treated with DMSO or various concentrations of the compound of Formula (Ic) for 72 h. Three independent tests were performed. 10 μL of MTT (5 mg/mL; Sigma) were added to each well, and incubation continued for another 4 h. Then the dark blue crystals were dissolved in 100 μL of the resolved solution (10% SDS and 0.1 mM HCL). The absorbance was measured at 570 nm by a microplate reader (Tecan, Morrisville, N.C., USA).
(§2) The cell viability was calculated relative to untreated controls, with results based on at least three independent experiments. […] The compound of Formula (Ic) exerts a 3.75-fold cytotoxicity towards cancer cells than normal healthy cells.

The subject of data set [3] is H2228 NSCLC cells. The data set can be described thus: MTT assay, cell viability of H2228 cells. Type of data set: cell-based. The following applies: Homo sapiens, NCI-H2228, 72 h treatment. Here is the method: (§3) H2228 (which express EML4-ALK fusion kinases, namely variant 3) and BEAS-2B cells were obtained from the American Type Culture Collection and cultured in environment of 5% CO2 at 37° C. in RPMI-1640 medium supplemented with 10% fetal bovine serum (FBS), 100 units/mL penicillin, and 100 μg/mL streptomycin.
(§4) The cytotoxicity effect of the compound of Formula (Ic) on H2228 NSCLC cells (harboring ALK fusion) and human bronchial epithelial (BEAS-2B) have been analyzed. H2228 cells were cultured in 96-well plates at a density of 3×10^3 cells/well, and were cultured overnight for cell adhesion. Then the cells were treated with DMSO or various concentrations of the compound of Formula (Ic) for 72 h. To each well 10 μL MTT (5 mg/mL) (Sigma) was added and the cells were incubated for another 4 h at 37° C., followed by adding 100 μL acidic isopropanol (10% SDS, and 0.01 mol/L HCl). Finally, the optical density (OD) of each well was measured at 570 nm by the Microplate Reader (Epoch, Winooski, USA). The cell viability was calculated relative to untreated controls, with results based on at least three independent experiments.

Data set [4] deals with BEAS-2B cells. The data set can be described thus: MTT assay, normal lung epithelial cells (Example 1A). Type of data set: cell-based. As to conditions: Homo sapiens, 72 h treatment. Here is the method: as §1, §2
Data set [5] has as its system ROS1 fusion kinase. The data set can be described thus: Western blot of ROS1 phosphorylation and downstream signaling in HCC78 cells. Type of data set: cell-based. The following applies: HCC78 cells, 1.25, 2.5, 5 μM, 72 h. As for the experimental part:
The cells were planted on 6-well plate, allowed to attach for 24 h, and treated with the various concentrations of the compound of Formula (Ic) for 72 h. Cells were washed twice with cold PBS then lysed in RIPA lysis buffer containing protease and phosphatase inhibitors. Protein concentration of the cell lysates was measured using the Bio-Rad protein Assay kit (Bio-Rad, 7 Philadelphia, Pa., USA). After equalizing the protein concentrations of the samples, 5× laemmli buffer was added and the samples were boiled at 100° C. for 5 min. Equal amounts of protein samples (30 μg) were subjected to SDS-PAGE of a 10% gel. The separated proteins were transferred to a nitrocellulose (NC) membrane, which was then exposed to 5% non-fat dried milk in TBS containing 0.1% Tween (0.1% TBST) for 1 h at room temperature, followed by overnight incubation at 4° C. with primary antibodies to GAPDH, phospho-AKT, AKT, phospho-ROS1, ROS1, phospho-ERK, ERK, phospho-STAT3, STAT3. After washing three times by TBST (5 mins/time), the membranes were incubated for 1 h at room temperature with the secondary fluorescent antibodies (1:10000 dilutions) to rabbit or mouse. The signal intensity of the membranes was detected by an LI-COR Odessy scanner (Belfast, Me., USA).

The test system of data set [6] is H2228 cells. Nature of the data set: Colony formation assay in H2228 cells. Type of data set: cell-based. The following applies: 14 days. Here is the method:
H2228 cells were seeded to six-well plate (1000/well). Then cells were exposed to various doses of the compound of Formula (Ic), namely 1.25, 2.5 and 5 μM. After 14 days, colonies were fixed with 4% paraformaldehyde for 15 min and stained with crystal violet for 10-15 min. Finally, the staining solution was slowly washed off with water and the cells were air dried. Clones with more than 50 cells were counted under a microscope.

For data set [7], the system named is HCC78 cells. The data set can be described thus: Apoptosis assay (Annexin-V FITC/PI, fluorescence images and flow cytometry) in HCC78 cells. The following applies: 72 h. Type of data set: cell-based. As for the experimental part:
HCC78 cells (1.0×10^5 cells/well) were allowed to attach to a 6-well plate for 24 h, and the cells were treated with the various concentrations of the compound of Formula (Ic) for additional 72 h. At the end of incubation, the cells were harvested by trypsinization and washed twice with ice-cold PBS. After centrifugation and removal of the supernatants, cell pellets were resuspended in 100 μL 1× Annexin-binding buffer, 2 μL Annexin-V FITC and 2 μL PI (100 μg/ml) were added and incubated in the dark at room temperature for 15 min before further addition of 400 μL of 1× Annexin-binding buffer. The stained cells were analyzed quantitatively using a flow cytometer (BD Biosciences, San Jose, Calif., USA). […] Such cell morphology indicates apoptosis.

For data set [8], the system named is H2228 cells. The data set can be described thus: Apoptosis assay (Annexin-V FITC/PI flow cytometry) in H2228 cells. Type of data set: cell-based. The following applies: 48 h. Here is the method:
H2228 cells (1.0×10^5 cells/well) were allowed to attach in a 6-well plate for 24 h. The cells were treated with various concentrations of the compound of Formula (Ic), namely 1.25, 2.5 and 5 μM, for 48 h. Subsequently, cells were trypsinized, washed with PBS twice, then the cells were resuspended in a total volume of 100 μL binding buffer with 2 μL Annexin-V FITC and 5 μL propidine iodide (PI). Finally, the cells were gently mixed and incubated in the dark at room temperature for 15 min, before further addition of 400 μL of 1× Annexin-binding buffer, the number of apoptotic cells was quantified using a Flow Cytometer (BD Biosciences, San Jose, Calif., USA) within 1 h. Data were analyzed by Flow Jo software.

Data set [9] has as its system ALK fusion kinase. The data set can be described thus: Western blot of ALK phosphorylation and downstream signaling in H2228 cells. Type of data set: cell-based. The following applies: H2228 cells, 1.25, 2.5, 5 μM. As for the experimental part:
Equal amounts of the protein samples (20-40 μg per lane) were separated on a 10% SDS-PAGE gel, then proteins were transferred onto Nitrocellulose (NC) membrane at 300 mA for 2.5 hours at 4° C., the membranes was probed with primary antibodies overnight at 4° C. which was then exposed to 5% non-fat dry milk in TBST for 1 h at room temperature with constant agitation and, then, rabbit or mouse fluorescent antibodies (1:1000) were added to the membrane at room temperature for 1 h. Visualization was performed using a LI-COR Odessy scanner (Belfast, Me., USA). All primary antibodies were diluted 1:1000, while their recommended secondary antibodies were diluted 1:10000.

Data set [10] deals with BEAS-2B cells. Nature of the data set: MTT assay, human bronchial epithelial cells (Example 2A). Type of data set: cell-based. As to conditions: 72 h treatment. As for the experimental part:
as §3, §4

SMILES strings stand for the structures.

This is an account of results in patent US9782400B2, “Oncogenic ROS1 and ALK kinase inhibitor” (Macau University of Science and Technology, priority 2015, dated 2017).

As to `C[C@@H](Oc1cc(-c2cnn(C3CCNCC3)c2)cnc1N)c1c(Cl)ccc(F)c1Cl` [crizotinib], in data set [1], the median progression-free survival is recorded as 19.2 months and the objective response rate is reported as 72%.

`COc1ccc(CNC(=O)Cn2nc(-c3ccccc3)c3cnc4ccccc4c32)cc1` [compound of Formula (Ic)]: in data set [2] (HCC78 versus BEAS-2B, 72 h), the “fold cytotoxicity towards cancer cells than normal healthy cells” value is listed as 3.75 fold. The IC50 in data set [2] (Homo sapiens, HCC78 cells, MTT, 72 h treatment) came to 1.62 µM; in data set [3] it was 2.71 ± 0.92 µM; in data set [4] it was 6.08 µM; in data set [10], 6.51 ± 1.08 µM. The “ROS1 phosphorylation and downstream signaling involving Erk1/2, STAT3 and AKT” value in data set [5] was “dose-dependent decrease”. The “formation of H2228 cell colonies” value in [6] (5 μM) is “no visible colonies”; in data set [6] (1.25, 2.5, 5 μM) it was “inhibited the formation of H2228 cell colonies in a dose-dependent manner”. Also, in data set [7] (HCC78 cells, 2.5 μM), the “cell morphology indicating apoptosis (fluorescence images)” value was “detach from the surface and are small”. Moreover, the “induction of apoptosis (flow cytometry)” value in data set [7] (HCC78 cells, 1.25, 2.5, 5 μM) was “induction of apoptosis on HCC78 cells in a concentration dependent manner”; in data set [8] (H2228 cells, 1.25, 2.5, 5 μM) it was “induction of apoptosis of H2228 cells in a concentration-dependent manner”. Moreover, the “level of cell apoptosis compared with control group” value in data set [8] (H2228 cells, concentration of at least 5 μM) is on record as “significant levels of cell apoptosis”. In addition, in data set [9], the “ALK phosphorylation and downstream PI3K/AKT, MEK/ERK and JAK/STAT3 signaling pathways” value is reported as “significant suppression”.
